Test results published in patent US9469645B2, “Compounds and compositions for the treatment of parasitic diseases” (Novartis AG, priority 2009, dated 2016).
Like-named read-outs stand apart in the source and are kept apart here.

Legend:
3D7 P. falciparum strain = assay: parasite proliferation assay in infected red blood cells (SYBR Green I); type: cell-based, Plasmodium falciparum; settings: 3D7 strain, read-out: EC50 3D7 strain
Summary of the method: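 P. falciparum 3D7 grown in O+ human erythrocytes to 3–8% parasitemia and exposed to compounds. Proliferation read as the increase in parasite DNA. Detection used SYBR Green I in saponin/triton-X/EDTA lysis buffer, with overnight lysis at room temperature.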

W2 strain = assay: parasite proliferation assay in infected red blood cells (SYBR Green I), W2 strain; type: cell-based
Source text: Compounds of the invention can be assayed to measure their capacity to inhibit proliferation of parasitemia in infected red blood cells. The proliferation is quantified by the addition of SYBR Green I (INVITROGEN)® dye which has a high affinity for double stranded DNA.

[1] = Plasmodium falciparum, 3D7, Erythrocyte
[2] = Plasmodium falciparum, Erythrocyte

SMILES | EC50 (3D7 P. falciparum strain; [1]) | EC50 (W2 strain; [2]) | EC50 (W2 strain; Erythrocyte) | EC50 (3D7 P. falciparum strain) | EC50 (W2 strain)
CC1(C)CN(C(=O)CN)Cc2nc(-c3cccc(F)c3)c(Nc3ccc(F)c(F)c3)n21 [Compound 622] | 100 nM | 121 nM | – | – | –
Cc1ccc(Nc2c(-c3ccc(F)cc3)nc3n2CC(C)CC3)cc1 (centres unmarked) [Compound 753] | 376 nM | 592 nM | – | – | –
COC[C@H](N)C(=O)N1CCn2c(nc(-c3ccc(F)cc3)c2Nc2ccc(Cl)c(F)c2)C1 [Compound 301] | 30 nM | – | 47 nM | – | –
NC(C(=O)N1CCn2c(nc(-c3ccc(F)cc3)c2Nc2ccc(Cl)c(F)c2)C1)c1ccc(C(F)(F)F)cc1 (centres unmarked) [Compound 368] | 520 nM | – | 286 nM | – | –
CC1(C)c2nc(-c3ccc(F)cc3)c(N[C@@H]3C[C@H]4CC[C@@H]3C4)n2CCN1C(=O)CN [Compound 667] | 104 nM | 82 nM | – | – | –
CCCC(=O)NCc1ccc(C[C@H](N)C(=O)N2CCn3c(nc(-c4ccc(F)cc4)c3Nc3ccc(C)cc3)C2)cc1 [Compound 218] | 4710 nM | – | 4010 nM | – | –
CC(=O)Nc1ccc(C[C@H](N)C(=O)N2CCn3c(nc(-c4ccc(F)cc4)c3Nc3ccc(C)cc3)C2)cc1 [Compound 160] | 4320 nM | – | 2390 nM | – | –
CC(C)(N)C(=O)N1CCn2c(nc(-c3ccc(F)cc3)c2Nc2cccc(Cl)c2)C1 [Compound 639] | 82 nM | 93 nM | – | – | –
CN1CCn2c(nc(-c3ccc(F)cc3)c2Nc2ccc(F)cc2)C1(C)C [Compound 606] | 20 nM | 28 nM | – | – | –
CC(C)(N)C(=O)N1CCn2c(nc(-c3ccc(F)cc3)c2Nc2ccc(OC(F)F)cc2)C1 [Compound 642] | 2010 nM | 2500 nM | – | – | –
CC(C)[C@@H]1c2nc(-c3ccc(F)cc3)c(Nc3ccc(Cl)c(F)c3)n2CCN1C(=O)CN [Compound 602] | 170 nM | 204 nM | – | – | –
Cc1ccc(Nc2c(-c3ccc(F)cc3)nc3n2CCN(C(=O)CNCc2ccccc2)C3)cc1 [Compound 146] | 20 nM | – | 14 nM | – | –
NCC(=O)N1CCn2c(nc(-c3ccc(F)cc3)c2Nc2ccc(C(F)(F)F)cc2)C1 [Compound 73] | 80 nM | – | 59 nM | – | –
Cc1ccc(Nc2c(-c3ccc(F)cc3)nc3n2CCN(C(=O)C(C)c2ccc(Cl)cc2)C3)cc1 (centres unmarked) [Compound 173] | 140 nM | – | 133 nM | – | –
CN(C)CC(=O)N1CCn2c(nc(-c3ccc(F)cc3)c2Nc2ccc(F)cc2)C1 [Compound 22] | 1300 nM | – | 691 nM | – | –
Cc1ccc(Nc2c(-c3ccc(F)cc3)nc3n2CCN(C(=O)C2CCCNC2)C3)cc1 (centres unmarked) [Compound 86] | – | – | – | 710 nM | 755 nM
Cc1ccc(Nc2c(-c3ccc(F)cc3)nc3n2CCN(C(=O)C(C)Oc2cccc(Cl)c2)C3)cc1 (centres unmarked) [Compound 203] | 970 nM | – | 369 nM | – | –
Cc1ccc(Nc2c(-c3ccc(F)cc3F)nc3n2CCN(C(=O)C(C)(C)N)C3)cc1 [Compound 395] | 440 nM | – | 246 nM | – | –
COC(=O)c1ccc(Nc2c(-c3ccccc3)nc3n2CCN(C(=O)C(C)(C)N)C3)cc1 [Compound 9] | 13800 nM | – | 3990 nM | – | –
CCN(CC)c1ccc(CN2CCn3c(nc(-c4ccc(F)cc4)c3Nc3ccc(C)cc3)C2)cc1 [Compound 182] | 1370 nM | – | 1080 nM | – | –

SMILES | EC50 (3D7 P. falciparum strain; [1]) | EC50 (W2 strain; [2]) | EC50 (W2 strain; Erythrocyte) | EC50 (3D7 P. falciparum strain) | EC50 (W2 strain)
Cc1ccc(Nc2c(-c3ccc(F)cc3)nc3n2CCN(C(=O)C(O)c2ccccc2Cl)C3)cc1 (centres unmarked) [Compound 131] | 40 nM | – | 30 nM | – | –
CCCNC(=O)C[C@H](NC(=O)OC(C)(C)C)C(=O)N1CCn2c(nc(-c3cccc(F)c3)c2Nc2ccc(Cl)c(F)c2)C1 [Compound 247] | 1420 nM | – | 3940 nM | – | –
O=C(CCc1ccccc1F)N1CCn2c(nc(-c3ccc(F)cc3)c2Nc2ccc(Cl)c(F)c2)C1 [Compound 359] | 140 nM | – | 108 nM | – | –
CN(c1ccc(Cl)c(F)c1)c1c(-c2ccc(F)cc2)nc2n1CCNC2 [Compound 292, N-(4-chloro-3-fluorophenyl)-2-(4-fluorophenyl)-N-methyl-5,6,7,8-tetrahydro imidazo[1,2-a]pyrazin-3-amine] | 150 nM | – | 156 nM | – | –
Cc1ccc(Nc2c(-c3ccc(F)cc3)nc3n2CCN(C(=O)[C@@H](N)CCS(C)(=O)=O)C3)cc1 [Compound 286] | 1380 nM | – | 1500 nM | – | –
Cc1ccc(Nc2c(-c3ccc(F)cc3)nc3n2CCN(C(=O)[C@H](N)CO)C3)cc1 [Compound 284] | 50 nM | – | 37 nM | – | –
Cc1cc(Nc2c(-c3ccc(F)cc3)nc3n2CCN(C(=O)CN)C3(C)C)nn1C [Compound 600] | 70 nM | 50 nM | – | – | –
Cc1cc(Nc2c(-c3ccc(F)cc3)nc3n2CC(=O)N(CCN(C)C)C3(C)C)ccc1Cl [Compound 684] | 30 nM | 17 nM | – | – | –
CC(C)(C)OC(=O)N[C@@H](CC(=O)O)C(=O)N1CCn2c(nc(-c3cccc(F)c3)c2Nc2ccc(Cl)c(F)c2)C1 [Compound 240] | 10500 nM | – | 6990 nM | – | –
CCc1ccc(Nc2c(-c3ccc(F)cc3)nc3n2CCN(C(=O)C(C)(C)N)C3)cc1 [Compound 641] | 799 nM | 1280 nM | – | – | –
Cc1ccc(Nc2c(-c3ccc(F)cc3)nc3n2CCN(C(=O)[C@H](CO)NC(=O)C(F)(F)F)C3)cc1 [Compound 164] | > 9810 nM | – | 3760 nM | – | –
Cc1ccc(Nc2c(-c3ccc(F)cc3)nc3ccccn23)cc1 [Compound 751] | 1790 nM | 4550 nM | – | – | –
CCCCC(=O)Nc1ccc(C[C@H](N)C(=O)N2CCn3c(nc(-c4cccc(F)c4)c3Nc3ccc(Cl)c(F)c3)C2)cc1 [Compound 258] | 4920 nM | – | 3510 nM | – | –
NCC(=O)N1CCn2c(nc(-c3ccc(Cl)cc3)c2Nc2ccc(F)cc2)C1 [Compound 55] | 660 nM | – | 437 nM | – | –
Cc1ccc(Nc2c(-c3ccc(F)cc3)nc3n2CCN(C(=O)C(C)Nc2c(C)cccc2C)C3)cc1 (centres unmarked) [Compound 380] | 1130 nM | – | 1790 nM | – | –
CN1CCn2c(nc(-c3ccc(F)cc3)c2Nc2ccc(Cl)cc2)C1(C)C [Compound 607] | 30 nM | 48 nM | – | – | –
CC(C)(C)CC(C)(C)Nc1c(-c2ccccc2OCCO)nc2ccccn12 [Compound 746] | > 10000 nM | 6940 nM | – | – | –
O=C([C@@H]1CCN1)N1CCn2c(nc(-c3ccc(F)cc3)c2Nc2ccc(Cl)c(F)c2)C1 [Compound 321] | 20 nM | – | 11 nM | – | –
CC(C)(C)[C@H](N)C(=O)N1CCn2c(nc(-c3ccc(F)cc3)c2Nc2ccc(Cl)c(F)c2)C1 [Compound 326] | 30 nM | – | 22 nM | – | –
CN1Cc2nc(-c3ccc(F)cc3)c(Nc3ccc(Cl)c(F)c3)n2C(C)(C)C1 [Compound 609] | 7020 nM | 4930 nM | – | – | –

SMILES | EC50 (3D7 P. falciparum strain; [1]) | EC50 (W2 strain; [2]) | EC50 (W2 strain; Erythrocyte) | EC50 (3D7 P. falciparum strain) | EC50 (W2 strain)
CC(C)(O)CC(=O)N1CCn2c(nc(-c3cccc(F)c3)c2Nc2ccc(Cl)c(F)c2)C1 [Compound 234] | 130 nM | – | 111 nM | – | –
Cc1ccc(Nc2c(-c3ccc(F)cc3)nc3n2CCN(C(=O)CNC(N)=O)C3)cc1 [Compound 166] | 2870 nM | – | 2230 nM | – | –
Cc1ccc(Nc2c(-c3ccc(F)cc3)nc3n2CCN(C(=O)[C@H](Cc2cccc(N)c2)NC(=O)OC(C)(C)C)C3)cc1 [Compound 246] | 3880 nM | – | 1790 nM | – | –
CC1(C)c2nc(-c3ccc(F)cc3)c(Sc3ccc(Cl)cc3)n2CCN1C(=O)CN [Compound 716] | 2 nM | 1 nM | – | – | –
N[C@@H](CC1CCC1)C(=O)N1CCn2c(nc(-c3ccc(F)cc3)c2Nc2ccc(Cl)c(F)c2)C1 [Compound 325] | 30 nM | – | 29 nM | – | –
Cc1ccc(Nc2c(-c3ccc(F)cc3)nc3n2CCN(C(=O)[C@H](CC(=O)OCc2ccccc2)NC(=O)OC(C)(C)C)C3)cc1 [Compound 151] | 820 nM | – | 386 nM | – | –
Fc1ccc(-c2nc3n(c2Nc2ccc(Cl)cc2)CCNC3)cc1 [Example 262, N-(4-chlorophenyl)-2-(4-fluorophenyl)-5,6,7,8-tetrahydroimidazo[1,2-a]pyrazin-3-mine] | 240 nM | – | 267 nM | – | –
O=C(C1COCCN1)N1CCn2c(nc(-c3ccc(F)cc3)c2Nc2ccc(Cl)c(F)c2)C1 (centres unmarked) [Compound 323] | 1730 nM | – | 1330 nM | – | –
CC1(C)N=C2c3nc(-c4ccc(F)cc4)c(Nc4ccc(F)c(F)c4)n3CCN2C1=O [Compound 645, 8-(3,4-difluorophenylamino)-9-(4-fluorophenyl)-2,2-dimethyl-5,6-dihydrodiimidazo[1,2-a:2′,1′-c]pyrazin-3 (2H)-one] | 5130 nM | 7600 nM | – | – | –
Cc1ccc(Nc2c(-c3ccc(F)cc3)nc3n2CCN(C(=O)C(O)c2cccc(O)c2)C3)cc1 (centres unmarked) [Compound 129] | 10 nM | – | 6 nM | – | –
CC1(C)c2nc(-c3ccc(F)cc3)c(Nc3cccc(C(F)(F)F)c3)n2CCN1C(=O)CN [Compound 652] | 19 nM | 12 nM | – | – | –
Cc1ccc(Nc2c(-c3ccc(F)c(F)c3)nc3n2CCN(C(=O)C(C)(C)N)C3)cc1 [Compound 379] | 60 nM | – | 50 nM | – | –
Cc1ccc(Nc2c(-c3ccc(F)cc3)nc3n2CCN(C(=O)[C@H]2CCC[C@H]2N)C3)cc1 [Compound 193] | 90 nM | – | 75 nM | – | –
CCCCCc1ccc(-c2nc3n(c2Nc2ccc(F)cc2)CCN(C(=O)C(C)(C)N)C3)cc1 [Compound 14] | 3590 nM | – | 5870 nM | – | –
CC(C)(N)C(=O)N1CCn2c(nc(-c3ccc(F)cc3)c2Nc2cc(Cl)cc(Cl)c2)C1 [Compound 644] | 310 nM | 490 nM | – | – | –
C[C@H](N)C(=O)N1CCn2c(nc(-c3ccc(F)cc3)c2Nc2ccc(F)cc2)C1 [Compound 17] | 90 nM | – | 64 nM | – | –
CC(C)(N)C(=O)N1CCn2c(nc(-c3ccc(F)cc3)c2Nc2ccc(Br)cc2)C1 [Compound 21] | 100 nM | – | 78 nM | – | –
Cc1ccc(Nc2c(-c3ccc(F)cc3)nc3n2CCN(C(=O)C(O)c2ccc(Cl)cc2)C3)cc1 (centres unmarked) [Compound 133] | 50 nM | – | 39 nM | – | –
